System: Magnaporthe grisea
Type: cell-based

**Q.** `OCCCCCCCCCCCCCCCCO` [1,16-hexadecanediol] was tested. Which “effectiveness in inducing appressorium formation compared with cAMP” value (in the presence of recombinant PepEST) did it give?
**A.** Its value is “much more effective than cAMP”.

**Q.** And the “reversal of the inhibition of appressorium formation by the recombinant protein” value (spores treated in the presence of recombinant PepEST, cAMP 10 mM, 1,16-hexadecanediol 0.01 mM)?
**A.** Its value is “reversible”.

Reference: patent US6613323B2 (priority 2000, dated 2003)
